Laboratory results from US20170216225A1, “METHOD FOR ANTICOAGULATION” (priority 2016, published 2017).

Assays:
Assay type in all cases: in vivo
[1] = test system: intrinsic pathway of coagulation system; assay: Activated partial thromboplastin time (aPTT) of plasma from IA-treated mice
Method: The 5- to 6-week old male C57BL/6JNar1 mice having body weights around 20 g were purchased from National Laboratory Animal Center, Taipei, Taiwan. Coagulation system in blood is composed of intrinsic and extrinsic pathways. The intrinsic pathway is assayed by activated thromboplastin time (aPTT) and the extrinsic pathway is assayed by prothrombin time (PT). Following intraperitoneal injection of various dose of IA, plasma was obtained at different periods of time and was assayed for aPTT and PT. aPTT and PT were assayed in a Stago ST4 coagulation analyzer (ST art 4, Diagnostica Stago, France). By carbon dioxide anesthesia of mice, blood was obtained by cardiac puncture using 3.2% sodium citrate mixing with blood at a ratio of 1:9. The blood was centrifuged at 2000g/rpm for 10 minutes to get the mouse plasma, which was assayed immediately. aPTT was assayed in 4-fold dilution of aPTT r reagent using kit-provided buffer solution as diluent. In aPTT assay, 0.1 mL of plasma was kept warm for 1 min at 37° C. in a barrette of 4 cuvettes in Stago ST4 coagulation analyzer, then 0.1 mL of 4 fold-diluted aPTT reagent and one steel ball were added and waited for 180 seconds. Finally, 0.1 mL of 25 mM CaCl2 solution was added for aPTT detection. To investigate the anticoagulation effect in the intrinsic pathway of coagulation system in the IA-treated mice, the aPTT was measured at different treatment times. Mouse (n=6) was intraperitoneally injected with 1 mL of 1000 ppm ([…]) IA, blood was drawn 1 hr, 2 hr, 3 hr, and 24 hr after IA injection. Ten mice were injected with vehicle (n=10) and were served as controls. Then, the aPTT of each group was measured. FIG. 2A is a diagram of Table 1-1. To investigate the anticoagulation effect in the intrinsic pathway of coagulation system the IA-treated mice, the aPTT was also measured under different doses of IA. Various doses of IA (1 ppm, 10 ppm, 100 ppm, 1,000 ppm) in 1 mL, were intraperitoneally injected into different groups of mice (n=6), respectively. Plasma was separated 3 hr later. Ten mice were injected with vehicle and were served as controls. The aPTT of each group was measured. FIG. 2B is a diagram of Table 1-2.

[2] = test system: extrinsic pathway of coagulation system; assay: Prothrombin time (PT) of plasma from IA-treated mice
Method: The 5- to 6-week old male C57BL/6JNar1 mice having body weights around 20 g were purchased from National Laboratory Animal Center, Taipei, Taiwan.
Coagulation system in blood is composed of intrinsic and extrinsic pathways. The intrinsic pathway is assayed by activated thromboplastin time (aPTT) and the extrinsic pathway is assayed by prothrombin time (PT). Following intraperitoneal injection of various dose of IA, plasma was obtained at different periods of time and was assayed for aPTT and PT. aPTT and PT were assayed in a Stago ST4 coagulation analyzer (ST art 4, Diagnostica Stago, France).
By carbon dioxide anesthesia of mice, blood was obtained by cardiac puncture using 3.2% sodium citrate mixing with blood at a ratio of 1:9. The blood was centrifuged at 2000g/rpm for 10 minutes to get the mouse plasma, which was assayed immediately.
PT was assayed in 4-fold dilution of PT reagent, composed of four parts including one part of PT reagent, one part of 25 mM CaCl solution, and two parts of sterile water. In PT assay, 0.1 mL of plasma was put into each of 4 barrette cuvette, each of which had one steel ball, and was kept at 37° C. for 1 min in Stago ST4 coagulation analyzer. Then, 0.2 mL of the diluted PT reagent was added for PT detection.
Moreover, to investigate the anticoagulation effect in the extrinsic pathway of coagulation system in the IA-treated mice, the PT was measured at different treatment times. Different groups of mice (n=6) were respectively intraperitoneally injected with 1 mL of 1000 ppm ([…]) IA, blood was drawn 1 hr, 2 hr, 3 hr, and 24 hr after IA injection. Ten mice were injected with vehicle (n=10) and were served as controls. Then, the PT of each group was measured. FIG. 3A is a diagram of Table 2-1.
To investigate the anticoagulation effect in the extrinsic pathway of coagulation system in the IA-treated mice, the PT was also measured under different doses of IA. Various doses of IA (1 ppm, 10 ppm, 100 ppm, 1,000 ppm) in 1 mL, were intraperitoneally injected into different groups of mice (n=6), respectively. Plasma was separated 3 hr later. Ten mice were injected with vehicle and were served as controls. The PT of each group was measured. FIG. 3B is a diagram of Table 2-2.

rats = assay: Tolerability of IA in rats; details: 1 mL of 30,000 ppm IA
Excerpt: (§1) In other words, IA is not harmful to the health of mammals even at high doses.

mice = assay: Tolerability of intraperitoneal IA in mice
Excerpt: as §1

[3] = 1 mL i.p., 3 hr after injection
[4] = 1 mL of 1000 ppm (0.05 mL/kg) IA i.p., treatment time 1 hr
[5] = 1 mL of 1000 ppm (0.05 mL/kg) IA i.p., treatment time 2 hr
[6] = 1 mL of 1000 ppm (0.05 mL/kg) IA i.p., treatment time 3 hr
[7] = 1 mL of 1000 ppm (0.05 mL/kg) IA i.p., treatment time 24 hr
[8] = injected dose 1 ppm in 1 mL i.p., 3 hr after injection
[9] = injected dose 10 ppm in 1 mL i.p., 3 hr after injection
[10] = injected dose 100 ppm in 1 mL i.p., 3 hr after injection
[11] = injected dose 1000 ppm in 1 mL i.p., 3 hr after injection

## CC(C)CCN [IA, 3-methyl-1-butanamine]
[1]; [3]
  Lowest dose with anticoagulation effect in the intrinsic pathway (aPTT prolonged, statistical meaning): 1 ppm
[1]; [4]
  Mean of aPTT: 30.8 s
[1]; [5]
  Mean of aPTT: 32.0 s
[1]; [6]
  Mean of aPTT: 33.7 s
[1]; [7]
  Mean of aPTT: 34.8 s
[1]; 1 mL of 1000 ppm IA i.p.
  Treatment time after which aPTT prolongation has statistical meaning: 1 h
[1]; [8]
  Mean of aPTT: 33.0 s
[1]; [9]
  Mean of aPTT: 33.0 s
[1]; [10]
  Mean of aPTT: 33.4 s
[1]; [11]
  Mean of aPTT: 33.7 s
[2]; [3]
  Dose at which PT was obviously prolonged (statistical meaning): 1000 ppm
[2]; [4]
  Mean of PT: 11.6 s
[2]; [5]
  Mean of PT: 12.2 s
[2]; [6]
  Mean of PT: 12.6 s
[2]; [7]
  Mean of PT: 13.2 s
[2]; 1 mL of 1000 ppm IA i.p.
  Treatment time after which PT prolongation has statistical meaning: 2 h
[2]; [8]
  Mean of PT: 11.2 s
[2]; [9]
  Mean of PT: 11.4 s
[2]; [10]
  Mean of PT: 11.5 s
[2]; [11]
  Mean of PT: 12.6 s
rats
  Physiological state after IA: normal physiological state can also be maintained
mice; BALB/C mice (20 g), 1 mL of 20,000 ppm (0.1 mL/kg) i.p.
  Tolerance of intraperitoneal injection: could tolerate
mice; mice, 1 mL of 1,000 ppm (0.05 mL/kg) IA
  Physiological state after IA: normal physiological state can be maintained
